# Measurements from patent publication US20230406860A1, “HETEROCYCLIC SPIRO COMPOUNDS AND METHODS OF USE” (AMGEN INC., priority 2020, published 2023).
# What was measured:
# [1] = system: A549 (human lung carcinoma) cells; test: Cell viability assay (CellTiter-Glo), A549; type: cell-based; details: 72 h
# Protocol: (§1) MIA PaCa-2 (human pancreatic carcinoma; ATCC CRL-1420) or A549 (human lung carcinoma; ATCC CCL-185) cells were cultured in RPMI 1640 medium containing 10% fetal bovine serum and 1× penicillin/streptomycin/L-glutamine. Cells were seeded in 384-well plates at a density of 1.67E+04 cells/mL and incubated at 37° C., 5% CO2, overnight. Serially-diluted compound or DMSO was added to the cells, and plates were incubated at 37° C., 5% CO2 for 72 h. Cell viability was measured using a CellTiter-Glo® Luminescent Cell Viability Assay kit (Promega) according to the manufacturer's protocol. The luminescence signal of treated samples was normalized to DMSO control, and data were analyzed using a 4-parameter logistic model to calculate IC50 values.
# [2] = biological target: GDP-bound KRAS protein (aa 1-169), containing both G12C and C118A amino acid substitutions (Homo sapiens, UniProt P01116, C118A/G12C); test: Coupled nucleotide exchange assay (SOS-mediated, AlphaScreen); type: biochemical; details: 2 h compound pre-incubation; read-out: Avg 2 h Coupled exchange IC50
# Protocol: Coupled Nucleotide Exchange Assay:
# For all subsequent steps, DTT was added to the reaction buffer at a final concentration of 1 mM. […] The assay plates were then read on a plate reader measuring luminescence signal. Signal intensity of compound-containing wells were normalized to DMSO control, and data were analyzed using a 4-parameter logistic model to calculate IC50 values.
# [3] = system: MIA PaCa-2 (human pancreatic carcinoma) cells; test: Cell viability assay (CellTiter-Glo), MIA PaCa-2; type: cell-based; details: 72 h
# Protocol: as §1
# Chain of GDP-bound KRAS protein (aa 1-169), containing both G12C and C118A amino acid substitutions (P01116 1-169 isoform P01116-2 G12C/C118A): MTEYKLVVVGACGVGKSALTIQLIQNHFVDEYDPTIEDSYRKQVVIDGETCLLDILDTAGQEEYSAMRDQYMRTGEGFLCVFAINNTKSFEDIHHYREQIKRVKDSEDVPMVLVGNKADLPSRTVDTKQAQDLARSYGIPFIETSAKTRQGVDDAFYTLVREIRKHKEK
SMILES,IC50 [1] [nM],IC50 [2] [nM],IC50 [3] [nM]
"C=CC(=O)N1CC2(CCN(c3nc4c(c(N[C@H](Cc5nnc[nH]5)CC(C)C)n3)CCCC4)C2)C1 [Example 1-19, 1-(6-(4-(((2S)-4-methyl-1-(4H-1,2,4-triazol-3-yl)-2-pentanyl)amino)-5,6,7,8-tetrahydro-2-quinazolinyl)-2,6-diazaspiro[3.4]octan-2-yl)-2-propen-1-one]",> 5000,4160,> 5000
"C=CC(=O)N1CC2(CCN(c3nc(N[C@H](CC(=O)NC)CC(C)C)c4ccc(C(C)C)cc4n3)C2)C1 [Example 1-20, (3S)-N,5-dimethyl-3-((7-(2-propanyl)-2-(2-(2-propenoyl)-2,6-diazaspiro[3.4]octan-6-yl)-4-quinazolinyl)amino)hexanamide]",21600,84,75
"C=CC(=O)N1CC2(CCN(c3nc4c(c(N[C@H](Cc5nnc(C)o5)CC(C)C)n3)CCCC4)C2)C1 [Example 1-22, 1-(6-(4-(((2S)-4-methyl-1-(5-methyl-1,3,4-oxadiazol-2-yl)-2-pentanyl)amino)-5,6,7,8-tetrahydro-2-quinazolinyl)-2,6-diazaspiro[3.4]octan-2-yl)-2-propen-1-one]",> 25000,830,279
"C=CC(=O)N1CC2(CCN(c3nc4c(c(N[C@H](Cc5ncc[nH]5)CC(C)C)n3)CCCC4)C2)C1 [Example 1-23, 1-(6-(4-(((2S)-1-(1H-imidazol-2-yl)-4-methyl-2-pentanyl)amino)-5,6,7,8-tetrahydro-2-quinazolinyl)-2,6-diazaspiro[3.4]octan-2-yl)-2-propen-1-one]",> 5000,1160,2830
"C=CC(=O)N1CC2(CCN(c3nc(N[C@H](CC(=O)NC)CC(C)C)c4ccc(C)cc4n3)C2)C1 [Example 1-25, (3S)-N,5-dimethyl-3-((7-methyl-2-(2-(2-propenoyl)-2,6-diazaspiro[3.4]octan-6-yl)-4-quinazolinyl)amino)hexanamide]",> 5000,339,921
"C=CC(=O)N1CC2(CCN(c3nc(N[C@H](CC(=O)NC)CC(C)C)c4ccc(C#N)cc4n3)C2)C1 [Example 1-26, (3S)-3-((7-cyano-2-(2-(2-propenoyl)-2,6-diazaspiro[3.4]octan-6-yl)-4-quinazolinyl)amino)-N,5-dimethylhexanamide]",> 25000,180,185
"C=CC(=O)N1CC2(C1)CN(c1nc(N[C@H](CC(=O)NC)CC(C)C)c3ccccc3n1)CC2F (stereo partly drawn) [Example 1-27, (3S)-3-((2-(8-fluoro-2-(2-propenoyl)-2,6-diazaspiro[3.4]octan-6-yl)-4-quinazolinyl)amino)-N,5-dimethylhexanamide]",> 5000,3490,> 5000
"C=CC(=O)N1CC2(C1)CN(c1nc3c(c(N[C@H](CC(=O)NC)CC(C)C)n1)CCC(C)C3)CC2F (stereo partly drawn) [Example 1-28, (3S)-3-((2-(8-fluoro-2-(2-propenoyl)-2,6-diazaspiro[3.4]octan-6-yl)-7-methyl-5,6,7,8-tetrahydro-4-quinazolinyl)amino)-N,5-dimethylhexanamide]",> 5000,196,189
"C=CC(=O)N1CC2(CCN(c3nc(N[C@H](CC(=O)NC)CC(C)C)c4ccc(Cl)cc4n3)C2)C1 [Example 1-30, (3S)-3-((7-chloro-2-(2-(2-propenoyl)-2,6-diazaspiro[3.4]octan-6-yl)-4-quinazolinyl)amino)-N,5-dimethylhexanamide]",14600,265,112
"C=CC(=O)N1CC2(CCN(c3nc4c(c(N[C@H](CC(=O)NC)CC(C)C)n3)OCCC4)C2)C1 [Example 1-31, (3S)-N,5-dimethyl-3-((2-(2-(2-propenoyl)-2,6-diazaspiro[3.4]octan-6-yl)-7,8-dihydro-6H-pyrano[3,2-d]pyrimidin-4-yl)amino)hexanamide]",> 25000,428,261
"C=CC(=O)N1CC2(CCN(c3nc4c(c(N[C@H](CC(=O)NC)CC(C)C)n3)CCC(C(F)(F)F)C4)C2)C1 (stereo partly drawn) [Example 1-32, (3S)-N,5-dimethyl-3-((2-(2-(2-propenoyl)-2,6-diazaspiro[3.4]octan-6-yl)-7-(trifluoromethyl)-5,6,7,8-tetrahydro-4-quinazolinyl)amino)hexanamide]",> 25000,57,24
"C=CC(=O)N1CC2(CCN(c3nc4c(c(N[C@H](CC(=O)NC)CC(C)C)n3)CC(C)CC4)C2)C1 (stereo partly drawn) [Example 1-33, (3S)-N,5-dimethyl-3-((6-methyl-2-(2-(2-propenoyl)-2,6-diazaspiro[3.4]octan-6-yl)-5,6,7,8-tetrahydro-4-quinazolinyl)amino)hexanamide]",> 25000,446,350
"C=CC(=O)N1CC2(CCN(c3nc(N[C@H](CC(=O)NC)CC(C)C)c4ncc(C)cc4n3)C2)C1 [Example 1-34, (3S)-N,5-dimethyl-3-((7-methyl-2-(2-(2-propenoyl)-2,6-diazaspiro[3.4]octan-6-yl)pyrido[3,2-d]pyrimidin-4-yl)amino)hexanamide]",> 25000,372,217
"C=CC(=O)N1CC2(CCN(c3nc(N[C@H](CC(=O)NC)CC(C)C)c4ccc(C(F)(F)F)cc4n3)C2)C1 [Example 1-35, (3S)-N,5-dimethyl-3-((2-(2-(2-propenoyl)-2,6-diazaspiro[3.4]octan-6-yl)-7-(trifluoromethyl)-4-quinazolinyl)amino)hexanamide]",10500,142,179
"C=CC(=O)N1CC2(CCN(c3nc(N[C@H](CC(=O)NC)CC(C)C)c4ncc(-c5nccs5)cc4n3)C2)C1 [Example 1-36, (3S)-N,5-dimethyl-3-((2-(2-(2-propenoyl)-2,6-diazaspiro[3.4]octan-6-yl)-7-(1,3-thiazol-2-yl)pyrido[3,2-d]pyrimidin-4-yl)amino)hexanamide]",> 5000,23,379
"C=CC(=O)N1CC2(CCN(c3nc(N[C@H](CC(=O)NC)CC(C)C)c4ncccc4n3)C2)C1 [Example 1-37, (3S)-N,5-dimethyl-3-((2-(2-(2-propenoyl)-2,6-diazaspiro[3.4]octan-6-yl)pyrido[3,2-d]pyrimidin-4-yl)amino)hexanamide]",> 25000,743,632
"C=CC(=O)N1CC2(CCN(c3nc(N[C@H](CC(=O)NC)CC(C)C)c4ncc(C5CC5)cc4n3)C2)C1 [Example 1-38, (3S)-3-((7-cyclopropyl-2-(2-(2-propenoyl)-2,6-diazaspiro[3.4]octan-6-yl)pyrido[3,2-d]pyrimidin-4-yl)amino)-N,5-dimethylhexanamide]",> 5000,60,959
"C=CC(=O)N1CC2(CCN(c3nc4c(c(N[C@H](Cc5nc(C)no5)CC(C)C)n3)CCC(C)(C)C4)C2)C1 [Example 1-39, 1-(6-(7,7-dimethyl-4-(((2S)-4-methyl-1-(3-methyl-1,2,4-oxadiazol-5-yl)-2-pentanyl)amino)-5,6,7,8-tetrahydro-2-quinazolinyl)-2,6-diazaspiro[3.4]octan-2-yl)-2-propen-1-one]",> 25000,685,790
"C=CC(=O)N1CC2(CCN(c3nc(N[C@H](CC(=O)NC)CC(C)C)c4ccc(C5CC5)cc4n3)C2)C1 [Example 1-40, (3S)-3-((7-cyclopropyl-2-(2-(2-propenoyl)-2,6-diazaspiro[3.4]octan-6-yl)-4-quinazolinyl)amino)-N,5-dimethylhexanamide]",19000,84,169
"C=CC(=O)N1CC2(CCN(c3nc(N[C@H](CC(=O)NC)CC(C)C)c4cc(C)ccc4n3)C2)C1 [Example 1-41, (3S)-N,5-dimethyl-3-((6-methyl-2-(2-(2-propenoyl)-2,6-diazaspiro[3.4]octan-6-yl)-4-quinazolinyl)amino)hexanamide]",> 25000,779,1230
"C=CC(=O)N1CC2(CCN(c3nc(N[C@H](CC(=O)NC)CC(C)C)c4ncc(OC)cc4n3)C2)C1 [Example 1-42, (3S)-3-((7-methoxy-2-(2-(2-propenoyl)-2,6-diazaspiro[3.4]octan-6-yl)pyrido[3,2-d]pyrimidin-4-yl)amino)-N,5-dimethylhexanamide]",> 5000,22,296
"C=CC(=O)N1CC2(CCN(c3nc4c(c(N[C@H](Cc5nccs5)CC(C)C)n3)CCC(C)(C)C4)C2)C1 [Example 1-43, 1-(6-(7,7-dimethyl-4-(((2S)-4-methyl-1-(1,3-thiazol-2-yl)-2-pentanyl)amino)-5,6,7,8-tetrahydro-2-quinazolinyl)-2,6-diazaspiro[3.4]octan-2-yl)-2-propen-1-one]",13500,121,205
"C=CC(=O)N1CC2(CCN(c3nc4c(c(N[C@H](Cc5noc(C)n5)CC(C)C)n3)CCC(C)(C)C4)C2)C1 [Example 1-44, 1-(6-(7,7-dimethyl-4-(((2S)-4-methyl-1-(5-methyl-1,2,4-oxadiazol-3-yl)-2-pentanyl)amino)-5,6,7,8-tetrahydro-2-quinazolinyl)-2,6-diazaspiro[3.4]octan-2-yl)-2-propen-1-one]",21900,380,316
